Assay results: US9556165B2 (priority 2012, dated 2017)
≈ marks a conversion by molar mass, not a printed value. Like-named read-outs stand apart in the source and are kept apart here.

Assays:
Type in all cases: cell-based
Bacteria = test: MIC determination in combination with β-lactamase inhibitors (constant 4 μg/mL)
A. baumannii ATCC15308 = test: MIC determination, broth microdilution (CLSI); conditions: for MIC: Acinetobacter baumannii, ATCC15308, strain 9
E. coli ATCC25922 = test: MIC determination, broth microdilution (CLSI); conditions: for MIC: Escherichia coli, ATCC25922, strain 1
[1] = system: P. aeruginosa 2297-con (AmpC derepressed); test: MIC determination, broth microdilution (CLSI); conditions: for MIC: Pseudomonas aeruginosa, read-out: strain 8 MIC, strain 8
[2] = system: P. aeruginosa 2297 (AmpC wt); test: MIC determination, broth microdilution (CLSI); conditions: for MIC: Pseudomonas aeruginosa, strain 7
S. pneumoniae 113 = test: MIC determination, broth microdilution (CLSI); conditions: broth microdilution; for MIC: Streptococcus pneumoniae, 113, strain 13, read-out: MIC strain 13 (S. pneumoniae 113)
E. coli J62-TEM-3 = test: MIC determination, broth microdilution (CLSI); conditions: Escherichia coli, J62TEM3, read-out: MIC strain 18 (E. coli J62-TEM-3), strain 18; broth microdilution
M. morganii 126/3048 = test: MIC determination, broth microdilution (CLSI); conditions: for MIC: Morganella morganii, 126/3048, strain 5
S. maltophilia ICB7569 = test: MIC determination, broth microdilution (CLSI); conditions: for MIC: Stenotrophomonas maltophilia, ICB7569, strain 10
H. influenzae ATCC 49247 = test: MIC determination, broth microdilution (CLSI); conditions: broth microdilution; for MIC: Haemophilus influenzae, ATCC49247, strain 12, read-out: MIC strain 12 (H. influenzae ATCC 49247)
K. pneumoniae 60 = test: MIC determination, broth microdilution (CLSI); conditions: for MIC: Klebsiella pneumoniae, 60, strain 2
P. aeruginosa PAO1 = test: MIC determination, broth microdilution (CLSI); conditions: for MIC: Pseudomonas aeruginosa, PAO1, strain 6
E. cloacae 34654 = test: MIC determination, broth microdilution (CLSI); conditions: for MIC: Enterobacter cloacae, 34654, strain 3
E. coli J62 = test: MIC determination, broth microdilution (CLSI); conditions: broth microdilution; for MIC: Escherichia coli, J62, strain 17, read-out: MIC strain 17 (E. coli J62)
B. fragilis 6688 = test: MIC determination, broth microdilution (CLSI); conditions: Bacteroides fragilis, 6688, strain 15; broth microdilution; read-out: MIC strain 15 (B. fragilis 6688)
S. aureus 133 = test: MIC determination, broth microdilution (CLSI)
C. perfringens DSM756 = test: microbe, parasite or virus in culture; conditions: Clostridium perfringens, DSM756, read-out: MIC strain 16 (C. perfringens DSM756), strain 16; broth microdilution
C. freundii K21/3034 = test: MIC determination, broth microdilution (CLSI); conditions: for MIC: Citrobacter freundii, K21/3034, strain 4
[3] = Staphylococcus aureus, 133, strain 11, read-out: strain 11 MIC
[4] = Staphylococcus aureus, 133, strain 14, broth microdilution, read-out: MIC strain 14 (S. aureus 133)

SMILES | MIC strain 19 (E. coli J62-TEM-3 + 4 μg/mL clavulanic acid) (Bacteria) | MIC strain 20 (E. coli J62-TEM-3 + 4 μg/mL sulbactam) (Bacteria) | MIC strain 21 (E. coli J62-TEM-3 + 4 μg/mL tazobactam) (Bacteria) | MIC (A. baumannii ATCC15308) [µg/mL] | MIC (E. coli ATCC25922) [µg/mL] | MIC [1] [µg/mL] | MIC [2] [µg/mL] | MIC (S. pneumoniae 113) [µg/mL] | MIC (E. coli J62-TEM-3) [µg/mL] | MIC (M. morganii 126/3048) [µg/mL] | MIC (S. maltophilia ICB7569) [µg/mL] | MIC (H. influenzae ATCC 49247) [µg/mL] | MIC (K. pneumoniae 60) [µg/mL] | MIC (P. aeruginosa PAO1) [µg/mL] | MIC (E. cloacae 34654) [µg/mL] | MIC (E. coli J62) [µg/mL] | MIC (B. fragilis 6688) [µg/mL] | MIC (S. aureus 133; [3]) [µg/mL] | MIC (S. aureus 133; [4]) [µg/mL] | MIC (C. perfringens DSM756) [µg/mL] | also measured
Cc1sc(C(=N)N)nc1OCCO/N=C(\C(=O)N[C@@H]1C(=O)N(OS(=O)(=O)O)C1(C)C)c1csc(N)n1 [Example 74, (2Z)-2-(2-Amino-1,3-thiazol-4-yl)-2-({2-[(2-carbamimidoyl-5-methyl-1,3-thiazol-4-yl)oxy]ethoxy}imino)-N-[(3S)-2,2-dimethyl-4-oxo-1-(sulfooxy)azetidin-3-yl]ethanamide] | 1 µg/mL | 1 µg/mL | 2 µg/mL | 2 (≈ 3.55 µM) | 1 (≈ 1.78 µM) | 32 (≈ 56.9 µM) | 32 (≈ 56.9 µM) | ≤ 0.063 | 16 (≈ 28.4 µM) | 1 (≈ 1.78 µM) | 16 (≈ 28.4 µM) | 0.25 (≈ 0.444 µM) | 2 (≈ 3.55 µM) | 16 (≈ 28.4 µM) | 4 (≈ 7.11 µM) | 4 (≈ 7.11 µM) | 2 (≈ 3.55 µM) | ≤ 0.063 | 32 (≈ 56.9 µM) | 2 (≈ 3.55 µM) | MIC (C. freundii K21/3034): 1 µg/mL (≈ 1.78 µM)
CC1(C)[C@H](NC(=O)/C(=N\OCCOc2ccc(C3=NCC(N)CN3)cc2)c2csc(N)n2)C(=O)N1OS(=O)(=O)O (stereo partly drawn) [Example 86, (2Z)-2-({2-[4-(5-Amino-1,4,5,6-tetrahydropyrimidin-2-yl)phenoxy]ethoxy}imino)-2-(2-amino-1,3-thiazol-4-yl)-N-[(3S)-2,2-dimethyl-4-oxo-1-(sulfooxy)azetidin-3-yl]ethanamide] | 0.25 µg/mL | 0.25 µg/mL | 0.5 µg/mL | 2 (≈ 3.35 µM) | 0.25 (≈ 0.419 µM) | 8 (≈ 13.4 µM) | 8 (≈ 13.4 µM) | ≤ 0.063 | 16 (≈ 26.8 µM) | 0.5 (≈ 0.838 µM) | 32 (≈ 53.6 µM) | ≤ 0.063 | 0.5 (≈ 0.838 µM) | 4 (≈ 6.7 µM) | 0.5 (≈ 0.838 µM) | 0.25 (≈ 0.419 µM) | 4 (≈ 6.7 µM) | ≤ 0.063 | 4 (≈ 6.7 µM) | 2 (≈ 3.35 µM) | MIC (C. freundii K21/3034): 0.25 µg/mL (≈ 0.419 µM)
CC1(C)[C@H](NC(=O)/C(=N\O[C@@H](COc2ccc(C(=N)NC3CNC3)cc2)C(=O)O)c2csc(N)n2)C(=O)N1OS(=O)(=O)O [Example 107, (2S)-2-({[(1Z)-1-(2-Amino-1,3-thiazol-4-yl)-2-{[(3S)-2,2-dimethyl-4-oxo-1-(sulfooxy)azetidin-3-yl]amino}-2-oxoethylidene]amino}oxy)-3-{4-[N-(azetidin-3-yl)carbamimidoyl]phenoxy}propanoic acid] | ≦0.063 mg/L | ≦0.063 mg/L | ≦0.063 mg/L | 1 (≈ 1.56 µM) | ≤ 0.063 | 1 (≈ 1.56 µM) | 1 (≈ 1.56 µM) | 0.5 (≈ 0.78 µM) | 4 (≈ 6.24 µM) | ≤ 0.063 | 4 (≈ 6.24 µM) | ≤ 0.063 | 0.125 (≈ 0.195 µM) | 1 (≈ 1.56 µM) | 0.25 (≈ 0.39 µM) | 0.125 (≈ 0.195 µM) | 8 (≈ 12.5 µM) | ≤ 0.063 | 32 (≈ 49.9 µM) | 0.125 (≈ 0.195 µM) | MIC (C. freundii K21/3034): ≤ 0.063 µg/mL
CC1(C)[C@H](NC(=O)/C(=N\OC(COc2ccc(C(=N)NCCN)cc2)C(=O)O)c2csc(N)n2)C(=O)N1OS(=O)(=O)O (mixture of isomers) [Example 44A, (2R and 2S)-3-{4-[N-(2-Aminoethyl)carbamimidoyl]phenoxy}-2-({[(1Z)-1-(2-amino-1,3-thiazol-4-yl)-2-{[(3S)-2,2-dimethyl-4-oxo-1-(sulfooxy)azetidin-3-yl]amino}-2-oxoethylidene]amino}oxy)propanoic acid] | ≦0.063 mg/L | ≦0.063 mg/L | ≦0.063 mg/L |  |  |  |  |  | 2 |  |  |  |  |  |  |  | 8 | ≤ 0.063 | 32 | 1 | strain 9 MIC (A. baumannii ATCC15308; strain 9): 2 µg/mL; strain 1 MIC (E. coli ATCC25922; strain 1): ≦0.063 mg/L; strain 8 MIC ([1]; strain 8): 1 µg/mL; strain 7 MIC [2]: 2 µg/mL; MIC strain 13 (S. pneumoniae 113) (S. pneumoniae 113; strain 13): 0.5 µg/mL; strain 5 MIC (M. morganii 126/3048; strain 5): 0.125 µg/mL; strain 10 MIC (S. maltophilia ICB7569; strain 10): 2 µg/mL; MIC strain 12 (H. influenzae ATCC 49247) (H. influenzae ATCC 49247; strain 12): ≦0.063 mg/L; strain 2 MIC (K. pneumoniae 60; strain 2): ≦0.063 mg/L; strain 6 MIC (P. aeruginosa PAO1; strain 6): 1 µg/mL; strain 3 MIC (E. cloacae 34654; strain 3): 0.125 µg/mL; MIC strain 17 (E. coli J62) (E. coli J62; strain 17): 0.125 µg/mL; strain 4 MIC (C. freundii K21/3034; strain 4): ≦0.063 mg/L
CNCCNC(=N)c1ccc(OC[C@H](O/N=C(\C(=O)N[C@@H]2C(=O)N(OS(=O)(=O)O)C2(C)C)c2csc(N)n2)C(=O)O)cc1 [Example 95, (2S)-2-({[(1Z)-1-(2-Amino-1,3-thiazol-4-yl)-2-{[(3S)-2,2-dimethyl-4-oxo-1-(sulfooxy)azetidin-3-yl]amino}-2-oxoethylidene]amino}oxy)-3-(4-{N-[2-(methylamino)ethyl]carbamimidoyl}phenoxy)propanoic acid] | 0.125 µg/mL | ≦0.063 mg/L | 0.125 µg/mL | 2 (≈ 3.11 µM) | 0.125 (≈ 0.195 µM) | 2 (≈ 3.11 µM) | 2 (≈ 3.11 µM) | 0.5 (≈ 0.778 µM) | 4 (≈ 6.22 µM) | ≤ 0.063 | 4 (≈ 6.22 µM) | ≤ 0.063 | 0.125 (≈ 0.195 µM) | 1 (≈ 1.56 µM) | 0.125 (≈ 0.195 µM) | 0.125 (≈ 0.195 µM) | 8 (≈ 12.4 µM) | ≤ 0.063 |  | 2 (≈ 3.11 µM) | MIC (C. freundii K21/3034): 0.125 µg/mL (≈ 0.195 µM)
CC1(C)[C@H](NC(=O)/C(=N\OCCOc2ccc(C(=N)NCCN)nc2)c2csc(N)n2)C(=O)N1OS(=O)(=O)O [Example 82, (2Z)-2-{[2-({6-[N-(2-Aminoethyl)carbamimidoyl]pyridin-3-yl}oxy)ethoxy]imino}-2-(2-amino-1,3-thiazol-4-yl)-N-[(3S)-2,2-dimethyl-4-oxo-1-(sulfooxy)azetidin-3-yl]ethanamide] | 0.25 µg/mL | 0.25 µg/mL | 0.5 µg/mL | 4 (≈ 6.83 µM) | 0.25 (≈ 0.427 µM) | 8 (≈ 13.7 µM) | 16 (≈ 27.3 µM) | ≤ 0.063 | 8 (≈ 13.7 µM) | 0.5 (≈ 0.854 µM) | 32 (≈ 54.6 µM) | ≤ 0.063 | 0.125 (≈ 0.213 µM) | 8 (≈ 13.7 µM) | 0.5 (≈ 0.854 µM) | 0.25 (≈ 0.427 µM) | 4 (≈ 6.83 µM) | ≤ 0.063 | 8 (≈ 13.7 µM) | 4 (≈ 6.83 µM) | MIC (C. freundii K21/3034): 0.25 µg/mL (≈ 0.427 µM)
CC(C)(N)CNC(=N)c1ccc(OC[C@H](O/N=C(\C(=O)N[C@@H]2C(=O)N(OS(=O)(=O)O)C2(C)C)c2csc(N)n2)C(=O)O)cc1 [Example 94, (2S)-3-{4-[N-(2-Amino-2-methylpropyl)carbamimidoyl]phenoxy}-2-({[(1Z)-1-(2-amino-1,3-thiazol-4-yl)-2-{[(3S)-2,2-dimethyl-4-oxo-1-(sulfooxy)azetidin-3-yl]amino}-2-oxoethylidene]amino}oxy)propanoic acid] | 0.125 µg/mL | ≦0.063 mg/L | 0.125 µg/mL | 2 (≈ 3.05 µM) | 0.125 (≈ 0.19 µM) | 2 (≈ 3.05 µM) | 2 (≈ 3.05 µM) | 0.5 (≈ 0.761 µM) | 8 (≈ 12.2 µM) | 0.125 (≈ 0.19 µM) | 4 (≈ 6.09 µM) | ≤ 0.063 | 0.125 (≈ 0.19 µM) | 2 (≈ 3.05 µM) | 0.125 (≈ 0.19 µM) | 0.25 (≈ 0.381 µM) | 8 (≈ 12.2 µM) | ≤ 0.063 | 32 (≈ 48.7 µM) | 0.5 (≈ 0.761 µM) | MIC (C. freundii K21/3034): 0.125 µg/mL (≈ 0.19 µM)
